Assay [1] deals with double stranded polyriboadenylic acid (ds poly-A) (RNA, polymer) A. Nature of the assay: fluorescence titration. Conditions: 10 mM citrate-phosphate buffer, pH 4.5, 20°C; up to P/D 100 (510.50 µM ds poly-A, 5.0 µM ST).
Assay [2] shares this test system. Nature of the assay: absorption titration. To be noted: 10 mM citrate-phosphate buffer, pH 4.5, 20°C; up to P/D 100 (301.09 µM ds poly-A, 3.05 µM ST).
For assay [3] the test system is unchanged. The assay can be described thus: thermal melting profile (CD). To be noted: 10 mM citrate-phosphate buffer, pH 4.5; 100.0 µM ds poly-A, D/P 0.53; no change, transition around 74°C.
Assay [4] concerns single stranded polyriboadenylic acid (ss poly-A) (RNA, polymer) A. The assay can be described thus: fluorescence titration, Scatchard, McGhee-von Hippel fit. Conditions: 10 mM Na+; 10 mM citrate-phosphate buffer, pH 7.0, 20°C; intrinsic constant, per nucleotide; per base.
Assay [5] has the same test system. Nature of the assay: absorption titration, Scatchard, McGhee-von Hippel fit. To be noted: 10 mM Na+; 10 mM citrate-phosphate buffer, pH 7.0, 20°C; intrinsic constant, per nucleotide; per base.
For assay [6], the system named is double stranded polyriboadenylic acid (ds poly-A) (RNA, polymer) A. The assay can be described thus: circular dichroism. Conditions: 10 mM citrate-phosphate buffer, pH 4.5, 20°C; 100.0 µM ds poly-A, up to 55.60 µM ST.

Each structure is given as a SMILES string.

For the molecule `Cc1cc2nc3cc(C)c(N)cc3[n+](-c3ccccc3)c2cc1N`, the binding entry in assay [1], in assay [2], in assay [3] and in assay [6] was “no” throughout. In addition, the “K′” value in assay [4] is given as 6.15±0.20 × 10^5 M^-1; in assay [5], 5.98±0.20 × 10^5 M^-1.

The values above are taken from article PMC3912202 (2014).
